Reference: patent US10717716B2, “1,3,4-oxadiazole derivative compounds as histone deacetylase 6 inhibitor, and the pharmaceutical composition comprising the same” (Chong Kun Dang Pharmaceutical Corp., priority 2015, dated 2020)

Biological target: T1, human recombinant HDAC6 (Homo sapiens, UniProt Q9UBN7)
T1 construct: purchased Calbiochem 382180
T1 sequence (Q9UBN7 1-1215): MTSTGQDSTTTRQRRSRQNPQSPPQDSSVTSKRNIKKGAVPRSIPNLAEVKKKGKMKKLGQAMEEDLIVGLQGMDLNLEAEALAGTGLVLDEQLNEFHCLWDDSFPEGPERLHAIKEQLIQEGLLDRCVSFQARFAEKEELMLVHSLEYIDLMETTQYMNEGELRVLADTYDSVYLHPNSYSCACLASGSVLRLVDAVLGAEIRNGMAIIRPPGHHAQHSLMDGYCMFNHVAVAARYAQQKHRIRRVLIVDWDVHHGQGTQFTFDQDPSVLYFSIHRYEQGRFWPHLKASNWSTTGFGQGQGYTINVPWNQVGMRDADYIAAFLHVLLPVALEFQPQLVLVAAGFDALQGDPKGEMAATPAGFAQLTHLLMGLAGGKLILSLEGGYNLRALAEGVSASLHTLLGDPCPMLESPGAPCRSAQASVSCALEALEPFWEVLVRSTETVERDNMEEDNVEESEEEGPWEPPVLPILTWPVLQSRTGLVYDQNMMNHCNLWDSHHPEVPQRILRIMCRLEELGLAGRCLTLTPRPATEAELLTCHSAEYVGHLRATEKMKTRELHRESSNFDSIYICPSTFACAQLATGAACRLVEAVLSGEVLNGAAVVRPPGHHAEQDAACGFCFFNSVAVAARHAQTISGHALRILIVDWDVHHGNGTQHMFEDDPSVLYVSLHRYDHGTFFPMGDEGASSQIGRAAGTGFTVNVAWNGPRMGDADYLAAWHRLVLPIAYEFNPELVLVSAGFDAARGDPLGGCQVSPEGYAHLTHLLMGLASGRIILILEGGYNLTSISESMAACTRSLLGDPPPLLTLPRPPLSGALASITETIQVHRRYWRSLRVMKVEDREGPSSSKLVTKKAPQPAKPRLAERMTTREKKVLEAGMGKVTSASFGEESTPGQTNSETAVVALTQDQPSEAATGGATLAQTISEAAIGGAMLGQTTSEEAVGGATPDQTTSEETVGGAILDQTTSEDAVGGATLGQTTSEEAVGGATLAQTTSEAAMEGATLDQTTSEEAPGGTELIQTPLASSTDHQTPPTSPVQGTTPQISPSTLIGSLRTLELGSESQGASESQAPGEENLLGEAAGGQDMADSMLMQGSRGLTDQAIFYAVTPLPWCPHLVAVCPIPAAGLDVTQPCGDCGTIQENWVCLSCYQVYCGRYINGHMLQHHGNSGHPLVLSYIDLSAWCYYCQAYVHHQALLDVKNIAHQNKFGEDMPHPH
Assay: HDAC6 enzyme activity inhibition assay (HDAC Fluorimetric Drug Discovery Kit)
Format: biochemical
Settings: for HDAC6 selectivity (fold): HDAC6 over HDAC1; for IC50: human recombinant HDAC6, same protocol as HDAC1, read-out: HDAC6
How it was run: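 Human recombinant HDAC1 or HDAC6 (0.3 μg) reacted with 10 μM Fluor de Lys-SIRT1 substrate and 5-fold compound dilutions for 60 min at 30 °C. Developer II added for 30 min, fluorescence read at Ex 360/Em 460; IC50 calculated from the readings.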

SMILES | HDAC6 selectivity (fold) | IC50 [nM]
CC(C)(C)CN1CCN(Cc2ccc(N(Cc3ccc(-c4nnc(C(F)F)o4)cc3F)C(=O)N3CCS(=O)(=O)CC3)cc2)CC1 [Compound 21895, N-(4-(5-(difluoromethyl)-1,3,4-oxadiazol-2-yl)-2-fluorobenzyl)-N-(4-((4-neopentylpiperazin-1-yl)methyl)phenyl)thiomorpholine-4-carboxamide 1,1-dioxide] | 42 | 236
CC(C)(F)CN1CCN(Cc2ccc(N(Cc3ccc(-c4nnc(C(F)F)o4)cc3F)C(=O)N3CCS(=O)(=O)CC3)cc2)CC1 [Compound 21901, N-(4-(5-(difluoromethyl)-1,3,4-oxadiazol-2-yl)-2-fluorobenzyl)-N-(4-((4-(2-fluoro-2-methylpropyl)piperazin-1-yl)methyl)phenyl)thiomorpholine-4-carboxamide 1,1-dioxide] | 29 | 349
O=C(N1CCS(=O)(=O)CC1)N(Cc1ccc(-c2nnc(C(F)F)o2)cc1F)c1ccc(CN2CCN(CC(F)(F)F)CC2)cc1 [Compound 21902, N-(4-(5-(difluoromethyl)-1,3,4-oxadiazol-2-yl)-2-fluorobenzyl)-N-(4-((4-(2,2,2-trifluoroethyl)piperazin-1-yl)methyl)phenyl)thiomorpholine-4-carboxamide 1,1-dioxide] | 25 | 398
O=C(N1CCOCC1)N(Cc1ccc(-c2nnc(C(F)F)o2)cc1F)C12CC3CC(CC(C3)C1)C2 [Compound 21910, N-((3s,5s,7s)-adamantan-1-yl)-N-(4-(5-(difluoromethyl)-1,3,4-oxadiazol-2-yl)-2-fluorobenzyl)morpholine-4-carboxamide] | 21 | 470
O=C(N1CCS(=O)(=O)CC1)N(Cc1ccc(-c2nnc(C(F)F)o2)cc1F)c1ccc(CN2CCC(F)(F)CC2)cc1 [Compound 21916, N-(4-(5-(difluoromethyl)-1,3,4-oxadiazol-2-yl)-2-fluorobenzyl)-N-(4-((4,4-difluoropiperidin-1-yl)methyl)phenyl)thiomorpholine-4-carboxamide 1,1-dioxide] | 43 | 232
O=C(N1CCS(=O)(=O)CC1)N(Cc1ccc(-c2nnc(C(F)F)o2)cc1F)c1ccc(CN2CCCCC2)cc1 [Compound 21919, N-(4-(5-(difluoromethyl)-1,3,4-oxadiazol-2-yl)-2-fluorobenzyl)-N-(4-(piperidin-1-ylmethyl)phenyl)thiomorpholine-4-carboxamide 1,1-dioxide] | 28 | 357
O=C(N1CCS(=O)(=O)CC1)N(Cc1ccc(-c2nnc(C(F)F)o2)cc1F)c1ccc(OC2CCN(Cc3ccccc3)CC2)cc1 [Compound 21924, N-(4-((1-benzylpiperidin-4-yl)oxy)phenyl)-N-(4-(5-(difluoromethyl)-1,3,4-oxadiazol-2-yl)-2-fluorobenzyl)thiomorpholine-4-carboxamide 1,1-dioxide] | 47 | 213
C[C@@H]1CN(Cc2ccccc2)C[C@H](C)N1Cc1ccc(N(Cc2ccc(-c3nnc(C(F)F)o3)cc2F)C(=O)N2CCS(=O)(=O)CC2)cc1 [Compound 21925] | 12 | 829
C[C@@H]1CN(Cc2ccc(N(Cc3ccc(-c4nnc(C(F)F)o4)cc3F)C(=O)N3CCS(=O)(=O)CC3)cc2)C[C@H](C)N1Cc1ccccc1 [Compound 21926] | 28 | 356
O=C(N1CCOCC1)N(Cc1ccc(-c2nnc(C(F)(F)F)o2)cc1F)C12CC3CC(CC(C3)C1)C2 [Compound 21931, N-((3s,5s,7s)-adamantan-1-yl)-N-(2-fluoro-4-(5-(trifluoromethyl)-1,3,4-oxadiazol-2-yl)benzyl)morpholine-4-carboxamide] | 6 | 1740
O=C(N1CCOCC1)N(Cc1ccc(-c2nnc(C(F)F)o2)cc1F)CC12CC3CC(CC(C3)C1)C2 [Compound 21932, N-(((3r,5r,7r)-adamantan-1-yl)methyl)-N-(4-(5-(difluoromethyl)-1,3,4-oxadiazol-2-yl)-2-fluorobenzyl)morpholine-4-carboxamide] | 15 | 684
O=C(N1CCOCC1)N(Cc1ccc(-c2nnc(C(F)(F)F)o2)cc1F)CC12CC3CC(CC(C3)C1)C2 [Compound 21933, N-(((3r,5r,7r)-adamantan-1-yl)methyl)-N-(2-fluoro-4-(5-(trifluoromethyl)-1,3,4-oxadiazol-2-yl)benzyl)morpholine-4-carboxamide] | 4 | 2410

Compounds with a lower IC50, results first:

HDAC6 selectivity (fold) | IC50 [nM] | SMILES
185 | 54 | CCN1CCN(C(=O)N(Cc2ccc(-c3nnc(C(F)F)o3)cc2F)c2cccc(OC)c2)CC1 [Compound 21890, N-(4-(5-(Difluoromethyl)-1,3,4-oxadiazol-2-yl)-2-fluorobenzyl)-4-ethyl-N-(3-methoxyphenyl)piperazine-1-carboxamide]
174 | 57 | CCN1CCN(C(=O)N(Cc2ccc(-c3nnc(C(F)F)o3)cn2)c2cccc(OC)c2)CC1 [Compound 21891, N-((5-(5-(Difluoromethyl)-1,3,4-oxadiazol-2-yl)pyridin-2-yl)methyl)-4-ethyl-N-(3-methoxyphenyl)piperazine-1-carboxamide]
53 | 190 | O=C(N1CCS(=O)(=O)CC1)N(Cc1ccc(-c2nnc(C(F)F)o2)cc1F)c1ccc(CN2CCN(Cc3ccccc3)CC2)cc1 [Compound 21900, N-(4-((4-benzylpiperazin-1-yl)methyl)phenyl)-N-(4-(5-(difluoromethyl)-1,3,4-oxadiazol-2-yl)-2-fluorobenzyl)thiomorpholine-4-carboxamide 1,1-dioxide]
63 | 158 | O=C(N1CCS(=O)(=O)CC1)N(Cc1ccc(-c2nnc(C(F)F)o2)cc1F)c1ccc(CN2CC(F)(F)C2)cc1 [Compound 21914, N-(4-((3,3-difluoroazetidin-1-yl)methyl)phenyl)-N-(4-(5-(difluoromethyl)-1,3,4-oxadiazol-2-yl)-2-fluorobenzyl)thiomorpholine-4-carboxamide 1,1-dioxide]
62 | 160 | O=C(N1CCS(=O)(=O)CC1)N(Cc1ccc(-c2nnc(C(F)F)o2)cc1F)c1ccc(CN2CCC(F)(F)C2)cc1 [Compound 21915, N-(4-(5-(difluoromethyl)-1,3,4-oxadiazol-2-yl)-2-fluorobenzyl)-N-(4-((3,3-difluoropyrrolidin-1-yl)methyl)phenyl)thiomorpholine-4-carboxamide 1,1-dioxide]
151 | 66 | CN(C)[C@@H]1CCN(Cc2ccc(N(Cc3ccc(-c4nnc(C(F)F)o4)cc3F)C(=O)N3CCS(=O)(=O)CC3)cc2)C1 [Compound 21917, (R)—N-(4-(5-(difluoromethyl)-1,3,4-oxadiazol-2-yl)-2-fluorobenzyl)-N-(4-((3-(dimethylamino)pyrrolidin-1-yl)methyl)phenyl)thiomorpholine-4-carboxamide 1,1-dioxide]
52 | 193 | O=C(N1CCS(=O)(=O)CC1)N(Cc1ccc(-c2nnc(C(F)F)o2)cc1F)c1ccc(CN2CCOCC2)cc1 [Compound 21918, N-(4-(5-(difluoromethyl)-1,3,4-oxadiazol-2-yl)-2-fluorobenzyl)-N-(4-(morpholinomethyl)phenyl)thiomorpholine-4-carboxamide 1,1-dioxide]
176 | 57 | O=C(N1CCOCC1)N(Cc1ccc(-c2nnc(C(F)F)o2)cc1F)c1ccc(F)c(Cl)c1 [Compound 21929, N-(3-chloro-4-fluorophenyl)-N-(4-(5-(difluoromethyl)-1,3,4-oxadiazol-2-yl)-2-fluorobenzyl)morpholine-4-carboxamide]
